2 compounds from PMC11259170, “Small-molecule probe for IBD risk variant GPR65 I231L alters cytokine signaling networks through positive allosteric modulation” (Science Advances, 2024) can be followed below.

The test system of experiment [1] is human monocyte-derived dendritic cells (MDDCs). The experiment in a line: Cytokine (TNF) production in human MDDCs, ELISA. The settings on record: LPS 100 ng/ml, 3 hours. In kind it is cell-based. As for the experimental part:
Human blood samples were collected from healthy donors at the Blood Donor Center at Massachusetts General Hospital in compliance with all relevant ethical regulations and according to protocol 2018P001504 approved by the Mass General Brigham Institutional Review Board. Donors provided informed written consent. Human PBMCs were isolated by density gradient separation using Ficoll-Paque PLUS (VWR- GE Life Sciences, catalog no. 17144002), as previously described ([54]). Isolated PBMCs were incubated overnight in DMEM (10% FBS, 0.2% sodium bicarbonate, 1X Glutamax) at 37°C, 5% CO2. Human monocytes were isolated from an unpurified Buffy Coat using RosetteSep human monocyte enrichment cocktail (StemCell Technologies, 15068) and frozen same day in FBS with 10% DMSO. […]
Frozen human monocytes were thawed and allowed to recover overnight in DMEM [10% FBS, 1% p/s, IL-4 (50 ng/ml; Peprotech, 200-04), and GM-CSF (50 ng/ml; Peprotech, 300-03)] at 37°C and 5% CO2. […] Supernatants were collected and TNF production was measured by ELISA (Invitrogen, 88-7346-88). Plates were read on BMG Labtech PHERAstar FSX. […]

The subject of experiment [2] is GPR65 KO HeLa cells + pLX empty vector. In words: cAMP detection, GPR65 KO HeLa + empty pLX vector (null control). Type of experiment: cell-based, human. The settings on record: Homo sapiens, 0.5 h; HeLa GPR65 KO + pLX, pH 7.1, 30 min, normalized to DMSO and 100 μM forskolin. In a few lines: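 CRISPR GPR65-KO HeLa cells, lentivirally reconstituted with hGPR65, mGPR65 or empty vector, were treated at 5000 cells/well in HBSS/Hepes with 0.5 mM IBMX at pH 7.1. Compounds were tested at 25 μM (primary screen) or 195 nM–100 μM (dose curves) for 30 min at RT. cAMP was read by Lance Ultra TR-FRET (665/615 nm) after 1 hour.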

In the case of `Cc1ccc(NC(=O)c2cnn3c(O)cc(-c4ccc(COC(C)C)cc4)nc23)nc1` [BRD5075, O=C(NC1=NC=C(C)C=C1)C2=C3N(N=C2)C(O)=CC(C4=CC=C(COC(C)C)C=C4)=N3], the TNF secretion result in experiment [1] (5 μM) was “did not reach statistical significance”; in experiment [1] (20 μM) it was “further TNF suppression”.

As for `CN1N=C(SCc2ccc(Cl)cc2Cl)Sc2c1cnn(C)c2=O` [BTB09089, reference compound], the EC50 in experiment [2] was above 100 µM.
